The record followed here is patent US11117907B2, “Curcuminoid-inspired synthetic compounds as anti-tumor agents” (University of North Florida Board of Trustees, priority 2017, dated 2021).

As usually defined, the melting point is the temperature of the solid-liquid transition.

On to `COc1cc(F)c(C=Cc2cc(C=Cc3cc(OC)c(OC)cc3F)n(-c3ccccc3)n2)cc1OC` [compound 22 of FIG. 43, 3,5-bis-(6-Fluoro-3,4-dimethoxystyryl)-1-phenylpyrazole], for which the melting point lay in the range of 142 to 144 °C.

Consider `O=C(/C=C/c1ccc(OC(F)(F)F)cc1)/C=C(O)\C=C\c1ccc(OC(F)(F)F)cc1` [compound 17 of FIG. 35, (1E,4E,6E)-5-Hydroxy-1,7-bis(4-trifluoromethoxyphenyl)hepta-1,4,6-trien-3-one], for which the melting point lay within 108 to 111 °C.

`N#Cc1ccc(-n2nc(C=Cc3ccc(F)cc3)cc2C=Cc2ccc(F)cc2)cc1` [compound 35 of FIG. 43, 3,5-bis-(4-Fluorostyryl)-1-(4-cyanophenyl)pyrazole] gave a melting point of 209 to 211 °C.

For the molecule `FC(F)(F)c1ccc(C=Cc2cc(C=Cc3ccc(C(F)(F)F)cc3)n(-c3ccccc3)n2)cc1` [compound 37 of FIG. 43, 3,5-bis-(4-Trifluoromethylstyryl)-1-phenylpyrazole], the melting point was 137 to 139 °C.

With `COc1cc(F)c(/C=C/C(=O)/C=C(O)\C=C\c2cc(OC)c(OC)cc2F)cc1OC` [compound 15 of FIG. 2, (1E,4E,6E)-5-Hydroxy-1,7-bis(3,4-dimethoxy-6-fluorophenyl)hepta-1,4,6-trien-3-one], the melting point fell in the range of 154 to 156 °C.

In turn, `COc1cc(C=Cc2cc(C=Cc3cc(OC)c(OC)c(OC)c3)n(-c3ccccc3)n2)cc(OC)c1OC` [compound 41 of FIG. 43, 3,5-bis-(3,4,5-Trimethoxy-styryl)-1-phenylpyrazole] yielded a melting point of 144 to 146 °C.

As to `COc1cc(F)c(/C=C/C(=O)C(F)(F)C(=O)/C=C/c2cc(OC)c(OC)cc2F)cc1OC` [compound 16 of FIG. 2, (1E,6E)-4,4-Difluoro-1,7-bis(3,4-dimethoxy-6-fluorophenyl)hepta-1,6-diene-3,5-dione], the melting point was in the range of 162 to 163 °C.

As to `O=C(/C=C/c1ccc(F)c(F)c1F)/C=C(O)\C=C\c1ccc(F)c(F)c1F` [compound 21 of FIG. 35, (1E,4E,6E)-5-Hydroxy-1,7-bis(2,3,4-trifluorophenyl)hepta-1,4,6-trien-3-one], the melting point lay within 156 to 158 °C.

Turning to `FC(F)(F)Sc1ccc(C=Cc2cc(C=Cc3ccc(SC(F)(F)F)cc3)on2)cc1` [compound 30 of FIG. 43, 3,5-bis-(4-Trifluoromethylthiostyryl)-isoxazole], the melting point lay in the range of 165 to 167 °C.

`Fc1ccc(C=Cc2cc(C=Cc3ccc(F)cc3)n(-c3cccc(C(F)(F)F)c3)n2)cc1` [compound 33 of FIG. 43, 3,5-bis-(4-Fluorostyryl)-1-(3-trifluoromethylphenyl)pyrazole]: the melting point was in the range of 98 to 100 °C.

As to `COc1ccc(/C=C/C(=O)/C=C(O)\C=C\c2ccc(OC)c(OCc3ccccc3)c2)cc1OCc1ccccc1` [compound 3 of FIG. 35, (1E,4E,6E)-5-Hydroxy-1,7-bis(3-benzyloxy-4-methoxyphenyl)hepta-1,4,6-trien-3-one], the melting point fell in the range of 153 to 155 °C.

`COc1cc(/C=C/C(=O)/C(F)=C(O)/C=C/c2ccc(O)c(OC)c2)ccc1O` [compound 4 of FIG. 2, (1E,4E,6E)-4-Fluoro-5-hydroxy-1,7-bis(4-hydroxy-3-methoxyphenyl)hepta-1,4,6-trien-3-one] had a melting point of 154 to 155 °C.

`COc1cc(C=Cc2cc(C=Cc3cc(OC)c(OC)c(OC)c3)n(-c3ccc(OC(F)(F)F)cc3)n2)cc(OC)c1OC` [compound 42 of FIG. 43, 3,5-bis-(3,4,5-Trimethoxy-styryl)-1-(4-trifluoromethoxyphenyl) pyrazole]: the melting point fell in the range of 140 to 142 °C.

The molecule `COc1cc(F)c(/C=C/C(=O)/C(F)=C(O)/C=C/c2cc(OC)c(OC)cc2F)cc1OC` [compound 17 of FIG. 2, (1E,4E,6E)-4-Fluoro-5-hydroxy-1,7-bis(3,4-dimethoxy-6-fluorophenyl)hepta-1,4,6-trien-3-one] gave a melting point of 148 to 150 °C.

On to `Fc1ccc(C=Cc2cc(C=Cc3ccc(F)cc3)n(-c3ccc(F)c(F)c3)n2)cc1` [compound 34 of FIG. 43, 3,5-bis-(4-Fluorostyryl)-1-(3,4-difluorophenyl)pyrazole], for which the melting point lay in the range of 169 to 170 °C.

On to `FC(F)(F)Sc1ccc(C=Cc2cc(C=Cc3ccc(SC(F)(F)F)cc3)n(-c3cccc(C(F)(F)F)c3)n2)cc1` [compound 29 of FIG. 43, 3,5-bis-(4-trifluoromethylthiostyryl)-1-(3-trifluoromethylphenyl)pyrazole], for which the melting point fell in the range of 121 to 122 °C.

For the molecule `O=C(/C=C/c1ccc(C(F)(F)F)cc1)/C=C(O)\C=C\c1ccc(C(F)(F)F)cc1` [compound 20 of FIG. 2, (1E,4E,6E)-1,7-Bis(4-trifluoromethyl-phenyl)-5-hydroxy-hepta-1,4,6-trien-3-one], the melting point lay within 153 to 154 °C.

The molecule `O=C(/C=C/c1cc2ccccc2o1)/C=C(O)\C=C\c1cc2ccccc2o1` [compound 9 of Example 5, (1E,4E,6E)-5-Hydroxy-1,7-bis(benzo[b]furan-2-yl)hepta-1,4,6-trien-3-one] showed a melting point of 178 to 180 °C.

For `O=C(/C=C/c1ccc(C(F)(F)F)cc1)C(F)(F)C(=O)/C=C/c1ccc(C(F)(F)F)cc1` [compound 21 of FIG. 2, (1E,6E)-4,4-Difluoro-1,7-bis(4-trifluoromethyl-phenyl)hepta-1,6-diene-3,5-dione], the melting point fell in the range of 75 to 76 °C.

The molecule `Fc1ccc(C=Cc2cc(C=Cc3ccc(F)cc3)n(-c3ccccc3)n2)cc1` [compound 31 of FIG. 43, 3,5-bis-(4-Fluorostyryl)-1-phenylpyrazole] came in with a melting point of 109 to 111 °C.

`O=C(/C=C/c1ccc(F)cc1)/C(F)=C(O)/C=C/c1ccc(F)cc1` [compound 13 of FIG. 2, (1E,4E,6E)-4-Fluoro-1,7-bis(4-fluorophenyl)-5-hydroxy-hepta-1,4,6-trien-3-one] yielded a melting point of 152 to 153 °C.

Turning to `COc1cc(F)c(/C=C/C(=O)C(F)C(=O)/C=C/c2cc(OC)c(OC)cc2F)cc1OC` [compound 18 of FIG. 2, (1E,6E)-4-Fluoro-1,7-bis(3,4-dimethoxy-6-fluorophenyl)hepta-1,6-diene-3,5-dione], the melting point was > 260 °C.

For `COc1ccc(C=Cc2cc(C=Cc3ccc(OC)c(OC)c3OC)on2)c(OC)c1OC` [compound 40 of FIG. 43, 3,5-bis-(2,3,4-Trimethoxystyryl)-isoxazole], the melting point lay within 136 to 137 °C.

With `O=C(/C=C/c1csc2ccccc12)/C=C(O)\C=C\c1csc2ccccc12` [compound 7 of Example 5, (1E,4E,6E)-5-Hydroxy-1,7-bis(benzo[b]thiophen-3-yl)hepta-1,4,6-trien-3-one], the melting point lay in the range of 159 to 160 °C.

The molecule `COc1cc(F)c(C=Cc2cc(C=Cc3cc(OC)c(OC)cc3F)n(-c3ccc(C#N)cc3)n2)cc1OC` [compound 26 of FIG. 43, 3,5-bis-(6-Fluoro-3,4-dimethoxystyryl)-1-(4-cyanophenyl)pyrazole] had a melting point of 91 to 93 °C.

`COc1cc(F)c(C=Cc2cc(C=Cc3cc(OC)c(OC)cc3F)n(-c3cc(F)cc(F)c3)n2)cc1OC` [compound 25 of FIG. 43, 3,5-bis-(6-Fluoro-3,4-dimethoxystyryl)-1-(3,5-difluorophenyl) pyrazole] came in with a melting point of 115 to 117 °C.

As to `O=C(/C=C/c1ccc(C(F)(F)F)cc1)/C(F)=C(O)/C=C/c1ccc(C(F)(F)F)cc1` [compound 22 of FIG. 2, (1E,4E,6E)-4-Fluoro-1,7-bis(4-trifluoromethyl-phenyl)-5-hydroxy-hepta-1,4,6-trien-3-one], the melting point was 144 to 146 °C.

In turn, `O=C(/C=C/c1cccc(OC(F)(F)F)c1)/C=C(O)\C=C\c1cccc(OC(F)(F)F)c1` [compound 15 of FIG. 35, (1E,4E,6E)-5-Hydroxy-1,7-bis(3-trifluoromethoxyphenyl)hepta-1,4,6-trien-3-one] registered a melting point of 68 to 70 °C.

The molecule `COc1cc(F)c(C=Cc2cc(C=Cc3cc(OC)c(OC)cc3F)n(-c3ccc(OC(F)(F)F)cc3)n2)cc1OC` [compound 23 of FIG. 43, 3,5-bis-(6-Fluoro-3,4-dimethoxystyryl)-1-(4-trifluoromethoxyphenyl)pyrazole] gave a melting point of 80 to 83 °C.

Molecule `COc1ccc(/C=C/C(=O)/C(F)=C(O)/C=C/c2ccc(OC)c(OC)c2)cc1OC` [compound 8 of FIG. 2, (1E,4E,6E)-4-Fluoro-5-hydroxy-1,7-bis(3,4-dimethoxyphenyl)hepta-1,4,6-trien-3-one] returned a melting point of 145 to 146 °C.

On to `COc1cc(F)c(C=Cc2cc(C=Cc3cc(OC)c(OC)cc3F)n(-c3cccc(C(F)(F)F)c3)n2)cc1OC` [compound 24 of FIG. 43, 3,5-bis-(6-Fluoro-3,4-dimethoxystyryl)-1-(3-trifluoromethylphenyl)pyrazole], for which the melting point was 130 to 134 °C.

As to `Fc1ccc(C=Cc2cc(C=Cc3ccc(F)cc3)n(-c3ccc(OC(F)(F)F)cc3)n2)cc1` [compound 32 of FIG. 43, 3,5-bis-(4-Fluorostyryl)-1-(4-trifluoromethoxyphenyl)pyrazole], the melting point was in the range of 155 to 156 °C.

`COc1ccc(/C=C/C(=O)/C=C(O)\C=C\c2ccc(OC)c(OC)c2OC)c(OC)c1OC` [compound 7 of FIG. 35, (1E,4E,6E)-5-Hydroxy-1,7-bis(2,3,4-trimethoxyphenyl)hepta-1,4,6-trien-3-one] yielded a melting point of 104 to 106 °C.

In the case of `FC(F)(F)Sc1ccc(C=Cc2cc(C=Cc3ccc(SC(F)(F)F)cc3)n(-c3ccccc3)n2)cc1` [compound 28 of FIG. 43, 3,5-bis-(4-Trifluoromethylthiostyryl)-1-phenylpyrazole], the melting point lay within 119 to 121 °C.

Consider `O=C(/C=C/c1ccc(F)cc1)C(F)(F)C(=O)/C=C/c1ccc(F)cc1` [compound 12 of FIG. 2, (1E,6E)-4,4-Difluoro-1,7-bis(4-fluorophenyl)hepta-1,6-diene-3,5-dione], for which the melting point lay in the range of 72 to 73 °C.

In the case of `COc1ccc(/C=C/C(=O)C(F)(F)C(=O)/C=C/c2ccc(OC)c(OC)c2)cc1OC` [compound 7 of FIG. 2, (1E,6E)-4,4-Difluoro-1,7-bis(3,4-dimethoxyphenyl)hepta-1,6-diene-3,5-dione], the melting point lay within 148 to 149 °C.
